From patent publication US20220289753A1, “SHP2 INHIBITORS” (IRBM S.P.A., priority 2019, published 2022)
Like-named read-outs stand apart in the source and are kept apart here.

Assays:
[1] = target: T1, SHP-2 enzyme (Met1-Leu525) (Homo sapiens, UniProt Q06124); test: SHP2 inhibition enzymatic assay (DiFMUP substrate, IRS1 peptide activation); type: biochemical; conditions: SHP2 wt; activated by 500 nM IRS1 peptide; 75 μM DiFMUP substrate
T1 construct: synthetized by Origene, Met1-Leu525, cat #TP750155; purchased Origene TP750155
T1 sequence (Q06124 1-525): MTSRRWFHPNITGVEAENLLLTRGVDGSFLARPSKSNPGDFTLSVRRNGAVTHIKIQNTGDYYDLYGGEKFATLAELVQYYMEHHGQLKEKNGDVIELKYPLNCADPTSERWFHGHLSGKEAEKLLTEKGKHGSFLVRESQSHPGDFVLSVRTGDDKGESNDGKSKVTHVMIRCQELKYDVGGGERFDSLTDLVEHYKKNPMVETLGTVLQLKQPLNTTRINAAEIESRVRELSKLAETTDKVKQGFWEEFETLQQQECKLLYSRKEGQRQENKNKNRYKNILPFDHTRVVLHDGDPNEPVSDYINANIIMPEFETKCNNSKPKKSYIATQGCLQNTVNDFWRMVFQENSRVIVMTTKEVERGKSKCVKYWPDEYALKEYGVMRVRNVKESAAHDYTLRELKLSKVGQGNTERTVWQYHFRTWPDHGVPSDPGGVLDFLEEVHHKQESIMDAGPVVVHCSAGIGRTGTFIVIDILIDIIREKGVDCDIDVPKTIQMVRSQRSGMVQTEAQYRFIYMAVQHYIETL
How it was run: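 SHP-2 (Met1-Leu525, 0.5 nM final) preincubated 30 min with compounds and IRS1 activating peptide in HEPES pH 7.2 buffer with NaCl, KCl, EDTA, tween-20, 5 mM DTT. DiFMUP then added for 30 min at room temperature and fluorescence read. IC50 from four-parameter logistic fit of % inhibition.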

[2] = tested on: ERK phosphorylation in KYSE-520 cells; test: Phospho-ERK cellular assay (Advanced phospho-ERK1/2 (Thr202/Tyr204) TR-FRET kit); type: cell-based; conditions: Homo sapiens, KYSE-520, 2 h, read-out: pERK IC50
Procedure: Phospho-ERK Cellular Assay
ERK phosphorylation was detected using the “Advanced phospho-ERK1/2 (Thr202/Tyr204)” TR-FRET kit (Cisbio, Cat #64AERPEG/H), following the manufacturer reagents and instructions. […] After an overnight incubation, cells were treated with DMSO serial diluted compounds and incubated for 2 h at 37° C. After incubation, 2 μL/well of 4× Lysis Buffer (Cisbio 64KL1FDF), were added and incubated with cells for 30 min on gentle shaking. Finally, lysates were added with 2 μL/well of Eu cryptate (donor) and D2 (acceptor) conjugated antibodies (as provided by the Cisbio kit #64AERPEG/H) diluted 1:100 in Detection Buffer (as provided by the Cisbio kit #64AERPEG/H). Plates were then sealed and incubated at room temperature in the dark. After an overnight incubation, the TR-FRET signal was detected on a suitable reader (Envision, PerkinElmer). The lower the TR-FRET signal the higher the higher the SHP2 inhibition in cells. […] The percentage activity is fitted against the compound dilutions with a four-parameter logistic regression. The inflection point (i.e. the concentration at which half-maximal inhibition is achieved) is the IC50.

[3] = KYSE-520 cells, 2 h at 37° C., TR-FRET

Row | SMILES | IC50 [1] [µM] | further results
1 | CC1(N)CCN(c2nc3ncc(Sc4cccnc4C(F)(F)F)nc3[nH]2)CC1 [Example 1, 4-methyl-1-(6-((2-(trifluoromethyl)pyridin-3-yl)thio)-1H-imidazo[4,5-b]pyrazin-2-yl)piperidin-4-amine] | < 0.5 | IC50 [2, 3]: 1 to 5 µM
2 | Nc1nccc(Sc2cnc3[nH]c(N4CCC5(CC4)Oc4ccccc4[C@H]5N)nc3n2)c1Cl [Example 35, (R)-1′-(5-((2-amino-3-chloropyridin-4-yl)thio)-1H-imidazo[4,5-b]pyrazin-2-yl)-3H-spiro[benzofuran-2,4′-piperidin]-3-amine] |  | IC50 [2, 3]: < 1 µM
3 | FC(F)(F)c1ncccc1Sc1cnc2[nH]c(NCC3COCCN3)nc2n1 (centres unmarked) [Example 111, N-(morpholin-3-ylmethyl)-5-((2-(trifluoromethyl)pyridin-3-yl)thio)-1H-imidazo[4,5-b]pyrazin-2-amine] | > 3 | 
4 | FC(F)(F)c1ncccc1Sc1cnc2[nH]c(NCc3cccnc3N3CCOCC3)nc2n1 [Example 112, N-((2-morpholinopyridin-3-yl)methyl)-5-((2-(trifluoromethyl)pyridin-3-yl)thio)-1H-imidazo[4,5-b]pyrazin-2-amine] | > 3 | 
5 | CC(C)(CNc1nc2nc(Sc3cccnc3C(F)(F)F)cnc2[nH]1)Cc1cccnc1 [Example 113, N-(2,2-dimethyl-3-(pyridin-3-yl)propyl)-5-((2-(trifluoromethyl)pyridin-3-yl)thio)-1H-imidazo[4,5-b]pyrazin-2-amine] | > 3 | 
6 | Cc1c(Cl)cccc1Sc1cnc2[nH]c(N3CCC(C)(N)CC3)nc2n1 [Example 114, 1-(5-((3-chloro-2-methylphenyl)thio)-1H-imidazo[4,5-b]pyrazin-2-yl)-4-methylpiperidin-4-amine] | < 0.5 | 
7 | CC(C)c1ccccc1Sc1cnc2[nH]c(N3CCC(C)(N)CC3)nc2n1 [Example 115, 1-(5-((2-isopropylphenyl)thio)-1H-imidazo[4,5-b]pyrazin-2-yl)-4-methylpiperidin-4-amine] | 0.5 to 3 | 
8 | CC1(N)CCN(c2nc3nc(Sc4cccc5[nH]cnc45)cnc3[nH]2)CC1 [Example 116] | 0.5 to 3 | 
9 | CC1(N)CCN(c2nc3nc(Sc4ccccc4S(C)(=O)=O)cnc3[nH]2)CC1 [Example 117, 4-methyl-1-(5-((2-(methylsulfonyl)phenyl)thio)-1H-imidazo[4,5-b]pyrazin-2-yl)piperidin-4-amine] | > 3 | 
10 | N[C@@H]1c2ccccc2CC12CCN(c1nc3nc(Sc4cccnc4C(F)(F)F)c(Cl)nc3[nH]1)CC2 [Example 118, (S)-1′-(6-chloro-5-((2-(trifluoromethyl)pyridin-3-yl)thio)-1H-imidazo[4,5-b]pyrazin-2-yl)-1,3-dihydrospiro[indene-2,4′-piperidin]-1-amine] | < 0.5 | 
11 | CC1(N)CCN(c2nc3nc(Sc4cccnc4C(F)(F)F)cnc3s2)CC1 [Example 119, 4-methyl-1-(5-((2-(trifluoromethyl)pyridin-3-yl)thio)thiazolo[4,5-b]pyrazin-2-yl)piperidin-4-amine] | 0.5 to 3 | 
12 | N[C@@H]1CCCC12CCN(c1nc3ncc(N4CCCc5ncccc54)nc3[nH]1)CC2 [Example 120, (R)-8-(6-(3,4-dihydro-1,5-naphthyridin-1(2H)-yl)-1H-imidazo[4,5-b]pyrazin-2-yl)-8-azaspiro[4.5]decan-1-amine] | > 3 | 
13 | CC1(N)CCN(c2nc3nc(Nc4cccc(Cl)c4Cl)cnc3[nH]2)CC1 [Example 121, 2-(4-amino-4-methylpiperidin-1-yl)-N-(2,3-dichlorophenyl)-1H-imidazo[4,5-b]pyrazin-5-amine] | > 3 | 
14 | CC1(N)CCN(c2nc3ncc(Oc4cccc(Cl)c4Cl)nc3[nH]2)CC1 [Example 122, 1-(5-(2,3-dichlorophenoxy)-1H-imidazo[4,5-b]pyrazin-2-yl)-4-methylpiperidin-4-amine] | 0.5 to 3 | 
15 | FC(F)(F)c1ncccc1Sc1cnc2[nH]c(NCCCN3CCOCC3)nc2n1 [Example 123, N-(3-morpholinopropyl)-5-((2-(trifluoromethyl)pyridin-3-yl)thio)-1H-imidazo[4,5-b]pyrazin-2-amine] | > 3 | 
16 | CC1(C)C2CNCC1CN(c1nc3nc(Sc4cccnc4C(F)(F)F)cnc3[nH]1)C2 [Example 124, 2-(9,9-dimethyl-3,7-diazabicyclo[3.3.1]nonan-3-yl)-5-((2-(trifluoromethyl)pyridin-3-yl)thio)-1H-imidazo[4,5-b]pyrazine] |  | IC50 [2]: > 5 µM
17 | FC(F)(F)c1ncccc1Sc1cnc2[nH]c(N3CCC4CCC(C3)N4)nc2n1 (centres unmarked) [Example 125, 2-(3,9-diazabicyclo[4.2.1]nonan-3-yl)-5-((2-(trifluoromethyl)pyridin-3-yl)thio)-1H-imidazo[4,5-b]pyrazine] |  | IC50 [2]: > 5 µM
18 | FC(F)(F)c1ncccc1Sc1cnc2nc(NC3CCNC4(CCC4)C3)[nH]c2n1 (centres unmarked) [Example 126, N-(5-azaspiro[3.5]nonan-8-yl)-6-((2-(trifluoromethyl)pyridin-3-yl)thio)-1H-imidazo[4,5-b]pyrazin-2-amine] |  | IC50 [2]: > 5 µM
19 | FC(F)(F)c1ncccc1Sc1cnc2[nH]c(NCC3CNC(c4ccccc4)C3)nc2n1 (centres unmarked) [Example 128, N-((5-phenylpyrrolidin-3-yl)methyl)-5-((2-(trifluoromethyl)pyridin-3-yl)thio)-1H-imidazo[4,5-b]pyrazin-2-amine] |  | IC50 [2]: > 5 µM
20 | COCCn1c(N2CCC(C)(N)CC2)nc2nc(Sc3cccnc3C(F)(F)F)cnc21 [Example 129, 1-(1-(2-methoxyethyl)-5-((2-(trifluoromethyl)pyridin-3-yl)thio)-1H-imidazo[4,5-b]pyrazin-2-yl)-4-methylpiperidin-4-amine] | 0.5 to 3 | 
21 | CC1(N)CCN(c2nc3ncc(-c4cccc(Cl)c4Cl)nc3[nH]2)CC1 [Example 131, 1-[5-(2,3-Dichlorophenyl)-1H-imidazo[4,5-b]pyrazin-2-yl]-4-methylpiperidin-4-amine] | 0.5 to 3 | 
22 | NC(=O)Cn1c(N2CCC3(CC2)Cc2ccccc2[C@H]3N)nc2nc(Sc3cccnc3C(F)(F)F)cnc21 [Example 137, (S)-2-(2-(1-amino-1,3-dihydrospiro[indene-2,4′-piperidin]-1′-yl)-5-((2-(trifluoromethyl)pyridin-3-yl)thio)-1H-imidazo[4,5-b]pyrazin-1-yl)acetamide] | > 3 | 
23 | Nc1nccc(Sc2cnc3[nH]c(N4CCC5(CC4)Oc4ccccc4[C@H]5N)nc3n2)c1Cl [Example 159, (R)-1′-(5-((2-amino-3-chloropyridin-4-yl)thio)-1H-imidazo[4,5-b]pyrazin-2-yl)-3H-spiro[benzofuran-2,4′-piperidin]-3-amine] | < 0.5 | 
24 | Nc1nccc(Sc2cnc3[nH]c(N4CCC5(CC4)Cc4ccc(O)cc4[C@H]5N)nc3n2)c1Cl [Example 208, (S)-1-amino-1′-(5-((2-amino-3-chloropyridin-4-yl)thio)-1H-imidazo[4,5-b]pyrazin-2-yl)-1,3-dihydrospiro[indene-2,4′-piperidin]-6-ol] | < 0.5 | 
25 | Nc1cnccc1Sc1cnc2[nH]c(N3CCC4(CC3)Cc3ccccc3[C@H]4N)nc2n1 [Example 210, (S)-1′-(5-((3-aminopyridin-4-yl)thio)-1H-imidazo[4,5-b]pyrazin-2-yl)-1,3-dihydrospiro[indene-2,4′-piperidin]-1-amine] | < 0.5 | 
26 | CN(C)c1ncccc1Sc1cnc2[nH]c(N3CCC4(CC3)Cc3ccccc3[C@H]4N)nc2n1 [Example 211, (S)-1′-(5-((2-(dimethylamino)pyridin-3-yl)thio)-1H-imidazo[4,5-b]pyrazin-2-yl)-1,3-dihydrospiro[indene-2,4′-piperidin]-1-amine] | < 0.5 | 
27 | N[C@@H]1c2ccccc2CC12CCN(c1nc3nc(Sc4ccnc5ccsc45)cnc3[nH]1)CC2 [Example 212, (S)-1′-(5-(thieno[3,2-b]pyridin-7-ylthio)-1H-imidazo[4,5-b]pyrazin-2-yl)-1,3-dihydrospiro[indene-2,4′-piperidin]-1-amine] | < 0.5 | 
28 | COc1ncccc1Sc1cnc2[nH]c(N3CCC4(CC3)Cc3ccccc3[C@H]4N)nc2n1 [Example 214, (S)-1′-(5-((2-methoxypyridin-3-yl)thio)-1H-imidazo[4,5-b]pyrazin-2-yl)-1,3-dihydrospiro[indene-2,4′-piperidin]-1-amine] | < 0.5 | 
